# Source: US20250295656A1, “COMBINATION OF LURBINECTEDIN AND IMMUNE CHECKPOINT INHIBITORS” (priority 2020, published 2025)
# Test system: MCA205 fibrosarcoma
# Experiment: Anticancer vaccination with lurbinectedin-treated dying MCA205 cells and rechallenge
# Format: in vivo, immunocompetent C57BL/6 mice
# Conditions: MCA205 cells treated with 1 μM lurbinectedin injected s.c., rechallenge with live cells one week later
# Description: MCA205 cells treated for 20 h with 1 μM lurbinectedin were inoculated subcutaneously (s.c.) into immunocompetent C57BL/6 mice, which were rechallenged 7 days later s.c. with living cells of the same type. The tumour growth was measured until endpoints were reached and overall survival was evaluated regularly for the following 30 days (n=6). (*p<. 01, two-tailed Student's t test, compared to all other groups). Data were analyzed with TumGrowth.
# In order to assess the capacity of lurbinectedin to stimulate anticancer immunity in a monotherapeutic approach and to convert tumour cells into a therapeutic vaccine we exposed murine fibrosarcoma cells to the drug in vitro (in conditions previously established to induce a sufficient amplitude of cell death) and then injected the dying cancer cells into syngeneic immunocompetent mice. […] Next we evaluated the effect of lurbinectedin on established cancers growing on immunocompetent or immunodeficient mice. […]
# Six- to eight-week-old female wild-type C57BL/6 and nu/nu mice were obtained from Envigo France (Huntingdon, UK) and were kept in the animal facility at the Gustave Roussy Campus Cancer in a specific pathogen-free and temperature-controlled environment with 12 h day, 12 h night cycles and received food and water ad libitum. […] Animals were monitored and tumour growth documented regularly until end-points were reached. […]
compound,measurement,setting,value
COc1ccc2[nH]c3c(c2c1)CCN[C@]31CS[C@@H]2c3c(OC(C)=O)c(C)c4c(c3[C@H](COC1=O)N1[C@@H]2[C@H]2c3c(cc(C)c(OC)c3O)C[C@@H]([C@@H]1O)N2C)OCO4 [lurbinectedin],overall survival after rechallenge,,increase
same,tumour growth after rechallenge,p=0.0094,significantly reduced
